Where “and” joins values, the source holds several entries; their conditions need not be identical. Equal values may be shown once.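 Briefly, cells in 96-well plates were exposed to five compound concentrations for 48 h, and endpoints were estimated by linear interpolation. Here, GI50 denotes the concentration required for 50% inhibition of growth. TGI is the concentration that stops growth completely.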
Tests used:
Assay in all cases: NCI-60 cell line screen, 48 h
RPMI-8226 leukemia = test system: RPMI-8226 leukemia
OVCAR-5 ovarian = test system: OVCAR-5 ovarian
EKVX NSCLC = test system: EKVX NSCLC
HCT-15 colon = test system: HCT-15 colon
SK-MEL-2 melanoma = test system: SK-MEL-2 melanoma
KM12 colon = test system: KM12 colon
SR leukemia = test system: SR leukemia
M19-MEL melanoma = test system: M19-MEL melanoma
SN12C renal = test system: SN12C renal
PC-3 prostate = test system: PC-3 prostate
T-47D breast = test system: T-47D breast
MCF7 breast = test system: MCF7 breast
SF-295 CNS = test system: SF-295 CNS
NCI-H522 lung = test system: NCI-H522 lung
MDA-MB-435 = test system: MDA-MB-435
UO-31 renal = test system: UO-31 renal
DU-145 prostate = test system: DU-145 prostate
UACC-257 melanoma = test system: UACC-257 melanoma
HOP-92 NSCLC = test system: HOP-92 NSCLC
NCI-H226 lung = test system: NCI-H226 lung
U251 CNS = test system: U251 CNS
K-562 leukemia = test system: K-562 leukemia
CAKI-1 renal = test system: CAKI-1 renal
OVCAR-8 ovarian = test system: OVCAR-8 ovarian
SF-268 CNS = test system: SF-268 CNS
786-0 renal = test system: 786-0 renal
OVCAR-3 ovarian = test system: OVCAR-3 ovarian
M14 melanoma = test system: M14 melanoma
SW-620 colon = test system: SW-620 colon
SF-539 CNS = test system: SF-539 CNS
OVCAR-4 ovarian = test system: OVCAR-4 ovarian
MDA-MB-231 breast = test system: MDA-MB-231 breast
COLO 205 colon = test system: COLO 205 colon
NCI/ADR-RES ovarian = test system: NCI/ADR-RES ovarian
HS 578T breast = test system: HS 578T breast
UACC-62 melanoma = test system: UACC-62 melanoma
RXF 393 renal = test system: RXF 393 renal
MALME-3M melanoma = test system: MALME-3M melanoma
SNB-75 CNS = test system: SNB-75 CNS
NCI-H23 lung = test system: NCI-H23 lung
LOX IMVI melanoma = test system: LOX IMVI melanoma
A549 NSCLC = test system: A549 NSCLC
NCI-H460 lung = test system: NCI-H460 lung
SNB-19 CNS = test system: SNB-19 CNS
SK-MEL-28 melanoma = test system: SK-MEL-28 melanoma
ACHN renal = test system: ACHN renal
TK-10 renal = test system: TK-10 renal
HCT-116 colon = test system: HCT-116 colon
SK-MEL-5 melanoma = test system: SK-MEL-5 melanoma
IGROV1 ovarian = test system: IGROV1 ovarian
SK-OV-3 ovarian = test system: SK-OV-3 ovarian
HOP-62 NSCLC = test system: HOP-62 NSCLC
MDA-N = test system: MDA-N
BT-549 breast = test system: BT-549 breast

With S=C(S)N1CCCCC1 the TGI (RPMI-8226 leukemia) was 68.3 µM and > 406 µM, the TGI (OVCAR-5 ovarian) was > 406 µM and the GI50 (EKVX NSCLC) was 46.5 µM. The TGI (EKVX NSCLC) was > 406 µM, the GI50 (HCT-15 colon) was 25.3 µM and 22.8 µM and the TGI (HCT-15 colon) was 177 µM. For the same molecule, the GI50 (SK-MEL-2 melanoma) was 28.2 µM and 54.1 µM, the TGI (SK-MEL-2 melanoma) was 84.6 µM and 179 µM and the GI50 (KM12 colon) was 50.2 µM and 51.8 µM. The TGI (KM12 colon) was 137 µM, the GI50 (SR leukemia) was 17.5 µM and 80.7 µM and the TGI (SR leukemia) was 67 µM and > 406 µM. The TGI (M19-MEL melanoma) was > 46.9 µM, the GI50 (SN12C renal) was 89.7 µM and 49.8 µM and the TGI (SN12C renal) was > 406 µM. The TGI (PC-3 prostate) was 70.4 µM and > 406 µM, the GI50 (T-47D breast) was 45.7 µM and the TGI (T-47D breast) was 299 µM. For the same molecule, the TGI (MCF7 breast) was 88.3 µM, the GI50 (SF-295 CNS) was 34 µM and 39.3 µM and the TGI (SF-295 CNS) was > 406 µM. For the same molecule, the GI50 (NCI-H522 lung) was 28 µM, the GI50 (MDA-MB-435) was 20.4 µM and the TGI (MDA-MB-435) was 67.9 µM and > 406 µM. The GI50 (UO-31 renal) was 20.9 µM, the TGI (UO-31 renal) was 55.5 µM and 398 µM and the TGI (DU-145 prostate) was > 406 µM. For the same molecule, the GI50 (UACC-257 melanoma) was 30.7 µM and 38 µM, the TGI (UACC-257 melanoma) was > 406 µM and the GI50 (HOP-92 NSCLC) was 24.9 µM and 116 µM. The TGI (HOP-92 NSCLC) was > 406 µM, the GI50 (NCI-H226 lung) was 42.4 µM and the TGI (NCI-H226 lung) was > 406 µM. For the same molecule, the GI50 (U251 CNS) was 60.3 µM, the TGI (U251 CNS) was > 406 µM and the GI50 (K-562 leukemia) was > 406 µM. For the same molecule, the GI50 (CAKI-1 renal) was 19.9 µM, the TGI (CAKI-1 renal) was 99.1 µM and > 406 µM and the GI50 (OVCAR-8 ovarian) was 22.9 µM and 15.9 µM. The TGI (OVCAR-8 ovarian) was > 406 µM, the GI50 (SF-268 CNS) was 26 µM and 106 µM and the TGI (SF-268 CNS) was > 406 µM. For the same molecule, the GI50 (786-0 renal) was 12.9 µM and 64.5 µM, the TGI (786-0 renal) was > 406 µM and the TGI (OVCAR-3 ovarian) was > 406 µM. The GI50 (M14 melanoma) was 10.9 µM, the TGI (M14 melanoma) was 85.7 µM and 29.7 µM and the GI50 (SW-620 colon) was 21.6 µM and 18.4 µM. The TGI (SW-620 colon) was 66.1 µM and 63.6 µM, the GI50 (SF-539 CNS) was 32.3 µM and 22.7 µM and the TGI (SF-539 CNS) was 83.3 µM and > 406 µM. The GI50 (OVCAR-4 ovarian) was 51 µM, the TGI (OVCAR-4 ovarian) was 295 µM and the TGI (MDA-MB-231 breast) was > 406 µM. The TGI (COLO 205 colon) was 82.7 µM, the GI50 (NCI/ADR-RES ovarian) was 20.8 µM and the TGI (NCI/ADR-RES ovarian) was 93.5 µM and 173 µM. The TGI (HS 578T breast) was > 406 µM, the GI50 (UACC-62 melanoma) was 19.8 µM and the TGI (UACC-62 melanoma) was > 46.3 µM and 82.5 µM. For the same molecule, the TGI (RXF 393 renal) was > 406 µM, the GI50 (MALME-3M melanoma) was 40.6 µM and 129 µM and the TGI (MALME-3M melanoma) was 64.8 µM and > 406 µM. The GI50 (SNB-75 CNS) was 28 µM, the TGI (SNB-75 CNS) was > 406 µM and the GI50 (NCI-H23 lung) was 36.6 µM. The TGI (NCI-H23 lung) was > 406 µM, the GI50 (LOX IMVI melanoma) was 11.2 µM and 8.18 µM and the TGI (LOX IMVI melanoma) was 26.6 µM and 16.3 µM. For the same molecule, the GI50 (A549 NSCLC) was 71.6 µM, the TGI (A549 NSCLC) was > 406 µM and the TGI (NCI-H460 lung) was 85 µM. The TGI (SNB-19 CNS) was > 406 µM, the GI50 (SK-MEL-28 melanoma) was 89 µM and the TGI (SK-MEL-28 melanoma) was > 406 µM. The GI50 (ACHN renal) was 19.6 µM and 54.3 µM, the TGI (ACHN renal) was > 406 µM and the TGI (TK-10 renal) was > 406 µM. The GI50 (HCT-116 colon) was 12 µM, the TGI (HCT-116 colon) was 26.2 µM and 45.3 µM and the TGI (SK-MEL-5 melanoma) was 81.5 µM. The GI50 (IGROV1 ovarian) was 55.2 µM and 10.5 µM, the TGI (IGROV1 ovarian) was 100 µM and the TGI (SK-OV-3 ovarian) was 353 µM. The GI50 (HOP-62 NSCLC) was 17 µM, the TGI (HOP-62 NSCLC) was > 406 µM and the GI50 (MDA-N) was 70.4 µM. For the same molecule, the TGI (MDA-N) was 46.6 µM and the TGI (BT-549 breast) was > 406 µM.

— PubChem BioAssay (NCI)
